Several values for one entry are separate records, joined by “and”; a condition that tells them apart may be missing. Equal entries are not always repeated. Where two headings read alike, the source gives them in different places.
Tests used:
beta amyloid production = assay: Repressor Release Assay (RRA); format: cell-based; conditions: for APPI % of Example #98: relative to Example 98; for fold induction at 10 µg/mL / fold induction at 20 µg/mL: read-out: APPI Fold Increase
Summary of the method: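 Read-out is luciferase luminescence (RLU) after 36-48 h duplicate compound exposure of transfected CHO-K1 cells. These cells carry transiently introduced APP-lacI and pRSVO-luc DNA. Diluent control was 25 mM Hepes/1% DMSO; toxicity recorded as binary score (1 non-toxic, 0 toxic).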

CHO-K1 cells = assay: Toxicity in RRA (loss of luciferase signal); conditions: toxicity = loss of signal (<0.75 fold increase)
Description: The beta amyloid inhibitory activity of the compounds of the present invention was determined using the Repressor Release Assay (RRA).
“Fold Increase” refers to the amount of luciferase activity (measured in relative light units) over diluent control. “SEM” refers to the standard error of the mean for fold increase.

[1] = Conc 10 μg/ml, luciferase activity over diluent control
[2] = Conc 20 μg/ml, luciferase activity over diluent control
[3] = Conc 20 μg/ml, luciferase activity (RLU) over diluent control
[4] = Conc 20 μg/ml, 1=non-toxic, 0=toxic

## CC[C@H](C)[C@H](NS(=O)(=O)c1ccc(F)cc1)C(O)(c1ccc(OC)cc1)c1ccc(OC)cc1 [Example 244, 4-fluoro-N-((1S,2S)-1-{hydroxy[bis(4-methoxyphenyl)]methyl}-2-methylbutyl) benzenesulfonamide]
Beta amyloid production; [1]
  APPI Fold Increase: 1.51 fold
Beta amyloid production; Conc 10 μg/ml
  APPI % of Example #98: 69.29%
CHO-K1 cells; Conc 10 μg/ml
  (%)APPI Toxicity: 1 (1=non-toxic)

## CC[C@H](C)[C@H](NS(=O)(=O)c1ccc(Cl)cc1)C(O)CC(C)C (stereo partly drawn) [Example 173, 4-chloro-N-{(1S)-2-hydroxy-4-methyl-1-[(1S)-1-methylpropyl]pentyl}benzenesulfonamide]
Beta amyloid production; [1]
  fold induction at 10 µg/mL: 2.56
CHO-K1 cells; Conc 10 μg/ml
  (%)APPI Toxicity: 1 (1=non-toxic)

## CC(C)C[C@@H](CO)NS(=O)(=O)c1ccccc1F [Example 109, 2-fluoro-N-[(1S)-1-(hydroxymethyl)-3-methylbutyl]benzenesulfonamide]
Beta amyloid production; [2]
  fold induction at 20 µg/mL: 1.9
CHO-K1 cells; Conc 20 μg/ml
  (%)APPI Toxicity: 1 (1=non-toxic)

## CC[C@H](C)[C@H](NS(=O)(=O)c1cccc(Cl)c1)C(O)c1ccc(OC)cc1 (stereo partly drawn) [Example 198, 3-chloro-N-{(1S,2S)-1-[hydroxy(4-methoxyphenyl)methyl]-2-methylbutyl}benzenesulfonamide]
Beta amyloid production; [1]
  fold induction at 10 µg/mL: 1.54
CHO-K1 cells; Conc 10 μg/ml
  (%)APPI Toxicity: 1 (1=non-toxic)

## CCCCCC[C@@H](c1ccccc1)[C@@H](CO)NS(=O)(=O)c1ccc(Cl)cc1 [Example 65, 4-chloro-N-[(1S,2S)-1-(hydroxymethyl)-2-phenyloctyl]benzenesulfonamide]
Beta amyloid production; [3]
  fold induction at 20 µg/mL: 1.9
CHO-K1 cells; [4]
  (%)APPI Toxicity: 1 (1=non-toxic)

## CCCCCCC(O)(CCCCCC)[C@@H](NS(=O)(=O)c1cccc(Cl)c1)[C@@H](C)CC [Example 249, 3-chloro-N-{(1S)-2-hexyl-2-hydroxy-1-[(1S)-1-methylpropyl]octyl}benzenesulfonamide]
Beta amyloid production; [1]
  fold induction at 10 µg/mL: 1.9
CHO-K1 cells; Conc 10 μg/ml
  (%)APPI Toxicity: 1 (1=non-toxic)

## C=CCCC(O)(CCC=C)[C@@H](NS(=O)(=O)c1ccccc1F)[C@@H](C)CC [Example 271, N-{(1S)-2-(3-butenyl)-2-hydroxy-1-[(1S)-1-methylpropyl]-5-hexenyl}-2-fluorobenzenesulfonamide]
Beta amyloid production; [1]
  fold induction at 10 µg/mL: 1.82
CHO-K1 cells; Conc 10 μg/ml
  (%)APPI Toxicity: 1 (1=non-toxic)

## C/C=C(\C)C(O)(/C(C)=C/C)[C@@H](NS(=O)(=O)c1ccc(F)cc1)[C@@H](C)CC (stereo partly drawn) [Example 245, 4-fluoro-N-{(1S,3E)-2-hydroxy-3-methyl-2-[(1E)-1-methyl-1-propenyl]-1-[(1S)-1-methylpropyl]-3-pentenyl}benzenesulfonamide]
Beta amyloid production; [1]
  fold induction at 10 µg/mL: 2.05
Beta amyloid production; [2]
  fold induction at 20 µg/mL: 3.5
CHO-K1 cells; Conc 10 μg/ml
  (%)APPI Toxicity: 1 (1=non-toxic)
CHO-K1 cells; Conc 20 μg/ml
  (%)APPI Toxicity: 1 (1=non-toxic)

## CC#CC(O)[C@@H](NS(=O)(=O)c1ccc(Cl)cc1)[C@@H](C)CC (stereo partly drawn) [Example 181, 4-chloro-N-{(1S)-2-hydroxy-1-[(1S)-1-methylpropyl]-3-pentynyl}benzenesulfonamide]
Beta amyloid production; [1]
  fold induction at 10 µg/mL: 1.76
CHO-K1 cells; Conc 10 μg/ml
  (%)APPI Toxicity: 1 (1=non-toxic)

## CC[C@H](C)[C@H](NS(=O)(=O)c1ccc(Cl)cc1)C(C)(C)O [Example 223, 4-chloro-N-[(1S,2S)-1-(1-hydroxy-1-methylethyl)-2-methylbutyl]benzenesulfonamide]
Beta amyloid production; [1]
  fold induction at 10 µg/mL: 2.33
CHO-K1 cells; Conc 10 μg/ml
  (%)APPI Toxicity: 1 (1=non-toxic)

## CC(C)C[C@@H](CO)NS(=O)(=O)c1ccc(Br)cc1 [Example 18, 4-bromo-N-[(1S)-1-(hydroxymethyl)-3-methylbutyl]benzenesulfonamide]
Beta amyloid production; [2]
  fold induction at 20 µg/mL: 1.9
CHO-K1 cells; Conc 20 μg/ml
  (%)APPI Toxicity: 1 (1=non-toxic)

## CCCCC(O)[C@@H](NS(=O)(=O)c1ccc(Br)cc1)[C@@H](C)CC (stereo partly drawn) [Example 148, 4-bromo-N-{(1S)-2-hydroxy-1-[(1S)-1-methylpropyl]hexyl}benzenesulfonamide]
Beta amyloid production; [1]
  fold induction at 10 µg/mL: 1.88
CHO-K1 cells; Conc 10 μg/ml
  (%)APPI Toxicity: 1 (1=non-toxic)

## O=S(=O)(N[C@H](CO)Cc1ccccc1)c1ccccc1F [Example 118, N-[(1S)-1-benzyl-2-hydroxyethyl]-2-fluorobenzenesulfonamide]
Beta amyloid production; [2]
  fold induction at 20 µg/mL: 1.6
CHO-K1 cells; Conc 20 μg/ml
  (%)APPI Toxicity: 1 (1=non-toxic)

## O=S(=O)(N[C@H](CO)Cc1ccc(OCc2ccccc2)cc1)c1ccc(Cl)cc1 [Example 96, N-{(1S)-1-[4-(benzyloxy)benzyl]-2-hydroxyethyl}-4-chlorobenzenesulfonamide]
Beta amyloid production; [2]
  fold induction at 20 µg/mL: 1.5
CHO-K1 cells; Conc 20 μg/ml
  (%)APPI Toxicity: 1 (1=non-toxic)

## C[C@@H](NS(=O)(=O)c1ccc(Br)cc1)[C@@H](O)c1ccccc1 [Example 100, 4-bromo-N-[(1R,2S)-2-hydroxy-1-methyl-2-phenylethyl] benzenesulfonamide]
Beta amyloid production; [2]
  APPI Fold Increase: 1.6 fold
Beta amyloid production; Conc 20 μg/ml
  APPI % of Example #98: 41%
CHO-K1 cells; Conc 20 μg/ml
  (%)APPI Toxicity: 1 (1=non-toxic)

## C=C(C)C(O)(C(=C)C)[C@@H](NS(=O)(=O)c1ccc(Cl)cc1)[C@@H](C)CC [Example 230, 4-chloro-N-{(1S)-2-hydroxy-2-isopropenyl-3-methyl-1-[(1S)-1-methylpropyl]-3-butenyl}benzenesulfonamide]
Beta amyloid production; [1]
  fold induction at 10 µg/mL: 1.75
Beta amyloid production; [2]
  fold induction at 20 µg/mL: 1.9
CHO-K1 cells; Conc 10 μg/ml
  (%)APPI Toxicity: 1 (1=non-toxic)
CHO-K1 cells; Conc 20 μg/ml
  (%)APPI Toxicity: 1 (1=non-toxic)

## O=S(=O)(N[C@H](CO)CC1CCCCC1)c1cccc(Cl)c1 [Example 106, 3-chloro-N-[(1S)-2-cyclohexyl-1-(hydroxymethyl)ethyl]benzenesulfonamide]
Beta amyloid production; [2]
  fold induction at 20 µg/mL: 1.6
CHO-K1 cells; Conc 20 μg/ml
  (%)APPI Toxicity: 1 (1=non-toxic)

## C=C(C)C(O)(C(=C)C)[C@@H](NS(=O)(=O)c1ccc(Br)cc1)[C@@H](C)CC [Example 219, 4-bromo-N-{(1S)-2-hydroxy-2-isopropenyl-3-methyl-1-[(1S)-1-methylpropyl]-3-butenyl}benzenesulfonamide]
Beta amyloid production; [1]
  fold induction at 10 µg/mL: 1.8
Beta amyloid production; [2]
  fold induction at 20 µg/mL: 2.8
CHO-K1 cells; Conc 10 μg/ml
  (%)APPI Toxicity: 1 (1=non-toxic)
CHO-K1 cells; Conc 20 μg/ml
  (%)APPI Toxicity: 1 (1=non-toxic)

## CC[C@H](C)[C@H](NS(=O)(=O)c1ccc(F)cc1)C(O)c1ccc(Cl)cc1 (stereo partly drawn) [Example 136, N-{(1S,2S)-1-[(4-chlorophenyl)(hydroxy)methyl]-2-methylbutyl}-4-fluorobenzenesulfonamide]
Beta amyloid production; [1]
  fold induction at 10 µg/mL: 3.04
CHO-K1 cells; Conc 10 μg/ml
  (%)APPI Toxicity: 1 (1=non-toxic)

## CCCCC(O)(CCCC)[C@@H](NS(=O)(=O)c1ccc(Br)cc1)[C@@H](C)CC [Example 213, 4-bromo-N-{(1S)-2-butyl-2-hydroxy-1-[(1S)-1-methylpropyl]hexyl}benzenesulfonamide]
Beta amyloid production; [1]
  fold induction at 10 µg/mL: 3.03
CHO-K1 cells; Conc 10 μg/ml
  (%)APPI Toxicity: 1 (1=non-toxic)

## C=C(C)C(O)(C(=C)C)[C@@H](NS(=O)(=O)c1ccccc1F)[C@@H](C)CC [Example 268, 2-fluoro-N-{(1S)-2-hydroxy-2-isopropenyl-3-methyl-1-[(1S)-1-methylpropyl]-3-butenyl}benzenesulfonamide]
Beta amyloid production; [1]
  fold induction at 10 µg/mL: 1.75
CHO-K1 cells; Conc 10 μg/ml
  (%)APPI Toxicity: 1 (1=non-toxic)

## CC[C@H](C)[C@@H](CO)NS(=O)(=O)c1cc(Cl)ccc1OC [Example 6, 5-chloro-N-[(1S,2S)-1-(hydroxymethyl)-2-methylbutyl]-2-methoxybenzenesulfonamide]
Beta amyloid production; [2]
  fold induction at 20 µg/mL: 1.7
CHO-K1 cells; Conc 20 μg/ml
  (%)APPI Toxicity: 1 (1=non-toxic)

## CCCCC(O)[C@@H](NS(=O)(=O)c1ccccc1F)[C@@H](C)CC (stereo partly drawn) [Example 205, 2-fluoro-N-{(1S)-2-hydroxy-1-[(1S)-1-methylpropyl]hexyl}benzenesulfonamide]
Beta amyloid production; [1]
  fold induction at 10 µg/mL: 1.72
CHO-K1 cells; Conc 10 μg/ml
  (%)APPI Toxicity: 1 (1=non-toxic)

## CC[C@H](C)[C@H](NS(=O)(=O)c1ccc(Cl)cc1)C(O)(c1cccc2ccccc12)c1cccc2ccccc12 [Example 234, 4-chloro-N-((1S,2S)-1-{hydroxy[di(1-naphthyl)]methyl}-2-methylbutyl) benzenesulfonamide]
Beta amyloid production; [1]
  APPI Fold Increase: 2.9 fold and 1.6 fold
CHO-K1 cells; Conc 10 μg/ml
  (%)APPI Toxicity: 1 (1=non-toxic)

## CCCC(CO)NS(=O)(=O)c1cccc(Cl)c1 (stereo not shown) [Example 105, 3-chloro-N-[1-(hydroxymethyl)butyl]benzenesulfonamide]
Beta amyloid production; [1]
  fold induction at 10 µg/mL: 1.54
CHO-K1 cells; Conc 10 μg/ml
  (%)APPI Toxicity: 1 (1=non-toxic)

## CCCCCC[C@@H](CC)[C@@H](CO)NS(=O)(=O)c1ccc(Br)cc1 [Example 75, 4-bromo-N-[(1S,2R)-2-ethyl-1-(hydroxymethyl)octyl]benzenesulfonamide]
Beta amyloid production; [3]
  fold induction at 20 µg/mL: 4.8
CHO-K1 cells; [4]
  (%)APPI Toxicity: 1 (1=non-toxic)

## CC[C@H](C)[C@H](NS(=O)(=O)c1ccc(F)cc1)C(O)C1CCCC1 (stereo partly drawn) [Example 127, N-{(1S,2S)-1-[cyclopentyl(hydroxy)methyl]-2-methylbutyl}-4-fluorobenzenesulfonamide]
Beta amyloid production; [1]
  fold induction at 10 µg/mL: 2.97
CHO-K1 cells; Conc 10 μg/ml
  (%)APPI Toxicity: 1 (1=non-toxic)

## CC(C)(C)[C@@H](CO)NS(=O)(=O)c1ccc(Cl)c(Cl)c1 [Example 30, 3,4-dichloro-N-[(1S)-1-(hydroxymethyl)-2,2-dimethylpropyl]benzenesulfonamide]
Beta amyloid production; [2]
  fold induction at 20 µg/mL: 2.1
CHO-K1 cells; Conc 20 μg/ml
  (%)APPI Toxicity: 1 (1=non-toxic)
